These results are taken from ChEMBL document CHEMBL1857833, “Screening and optimization of specific chemical series against human African Trypanosomiasis (HAT)”.

The term Papp B→A denotes how fast a substance crosses the layer from the basolateral side. One may read the kinetic solubility as the concentration staying in solution when a stock, usually in DMSO, is diluted into the medium. In general, half-life refers to how long it takes for the measured level to halve. As usually defined, the IC50 is the point on the concentration scale where inhibition reaches its midpoint. For orientation: chromatographic logD means a lipophilicity value derived from retention on a column. One may read the Papp A→B as the apparent permeability from the apical to the basolateral side of a cell layer. Usually share remaining stands for the share of the starting amount still present when the sample was taken. A lower share remaining goes with a greater loss. Usually Papp stands for the rate of passage across a membrane or cell layer, normalised by area and donor concentration.

In brackets after ≈: the same amount, converted by molar mass.

Series [1] relates to Trypanosoma brucei. In words: DNDI: Mean survival time in days (MSD) of mice after intraperitoneal injection of Human African Trypanosomiasis (HAT), EATRO 110, in vivo at 20 mg/kg/day for 4 days. It is filed as functional, Mus musculus.
Series [2] has as its system Trypanosoma brucei. In words: DNDI: Mean survival time in days (MSD) of mice after intraperitoneal injection of Human African Trypanosomiasis (HAT), EATRO 110, at 0.5 mg/kg/day for 4 days. It is filed as functional, Mus musculus.
For series [3], the system named is Trypanosoma brucei. In words: DNDI: Mean survival time in days (MSD) of mice after intraperitoneal injection of Human African Trypanosomiasis (HAT), EATRO 110, in vivo at 2.5 mg/kg/day for 4 days. It is filed as functional, Mus musculus.
For series [4], the system named is Trypanosoma brucei. In words: DNDI: Mean survival time in days (MSD) of mice after intraperitoneal injection of Human African Trypanosomiasis (HAT), EATRO 110, in vivo at 5 mg/kg/day for 4 days. It is filed as functional, Mus musculus.
For series [5], the target named is T1, MDR1 (ABCB1) (Homo sapiens, UniProt P08183). In words: DNDI: Apparent permeability from basolateral to apical side of the MDCK cell transfected with human MDR1 after 60 mins at a concentration of 3uM. It is filed as ADME, cell-based, Canis lupus familiaris. The following applies: dog.
A short description of series [6]: DNDI: Solubility in phosphate buffered saline at pH7.4 measured by optical density (turbidimetry) at room temperature (OD-RT). In kind it is physicochemical. Conditions: pH 7.4.
Series [7] addresses T1, MDR1 (ABCB1). In words: (§1) DNDI: Efflux ratio for permeability from basolateral to apical side to apical to basolateral side of MDCK cells transfected with human MDR1. In kind it is ADME, cell-based, Canis lupus familiaris. Conditions: dog, read-out: B-A/A-B.
The nature of series [8]: DNDI: half life in mouse liver microsomes at a concentration of 10uM. It is filed as ADME, Microsome. (Microsomes from liver hold many membrane-bound enzymes, among them those of drug oxidation.)
The test system of series [9] is Trypanosoma brucei. In words: DNDI: Mean survival time in days (MSD) of mice after intraperitoneal injection of Human African Trypanosomiasis (HAT), EATRO 110, in vivo at 12.5 mg/kg/day for 4 days. It is filed as functional, Mus musculus.
Series [10] has as its target T1, MDR1 (ABCB1). In words: DNDI: % of compound recovered from apical to basolateral permeability assay in MDCK cells transfected with human MDR1. It is filed as ADME, cell-based, Canis lupus familiaris. The following applies: dog.
The subject of series [11] is Trypanosoma brucei. In words: DNDI: Inhibition of Human African Trypanosomiasis, SBRI 427, in vitro. In kind it is functional, organism-based.
A short description of series [12]: DNDI: in vitro intrinsic clearance in mouse liver microsomes at a concentration of 10uM. In kind it is ADME, Microsome. Conditions: read-out: CLint in vitro.
The subject of series [13] is Trypanosoma brucei. In words: DNDI: Inhibition of Human African Trypanosomiasis, EATRO 110, in vitro. It is filed as functional, organism-based.
Series [14] is described as follows: DNDI: Lipophilicity measured in Chromatographic hydrophobicity index (CHI) assay, pH 7.4. It is filed as physicochemical. Conditions: buffer.
The nature of series [15]: DNDI: Cytotoxicity against L929 mouse fibroblasts, CYTO-SP, 24 hour. It is filed as toxicity, cell-based. Conditions: mouse, L929 mouse fibroblasts.
Series [16] deals with T1, MDR1 (ABCB1). In words: DNDI: % of compound recovered from basolateral to apical permeability assay in MDCK cells transfected with human MDR1. In kind it is ADME, cell-based, Canis lupus familiaris. The following applies: dog.
The subject of series [17] is Trypanosoma brucei. In words: DNDI: Mean survival time in days (MSD) of mice after intraperitoneal injection of Human African Trypanosomiasis (HAT), EATRO 110, in vivo at 1.25 mg/kg/day for 4 days. In kind it is functional, Mus musculus.
Series [18] concerns the target T1, MDR1 (ABCB1). In words: DNDI: Apparent permeability from apical to basolateral side of the MDCK cell transfected with human MDR1. In kind it is ADME, cell-based, Canis lupus familiaris. The following applies: dog.
Series [19] is described as follows: DNDI: Solubility in phosphate buffered saline at pH7.4 measured by nephelometry at room temperature (NEPH-RT). Conditions: pH 7.4. In kind it is physicochemical.
The nature of series [20]: in vitro. Conditions: human, liver microsomes, CLint in vitro.
Description: (§3) DNDI: in vitro intrinsic clearance in human liver microsomes at a concentration of 1uM
Series [21] can be described thus: in vitro. The following applies: human, liver microsomes, t (1 / 2).
Description: (§4) DNDI: half life in human liver microsomes at a concentration of 1uM
The nature of series [22]: in vitro. Conditions: mouse, liver microsomes.
Description: (§5) DNDI: in vitro intrinsic clearance in mouse liver microsomes at a concentration of 1uM
The conditions of series [23]: human, microsomes, 1 µM.
Description: as §4
The conditions of series [24]: mouse, microsomes, 1 µM.
Description: as §5
The conditions of series [25]: human, microsomes, 1 µM. This is another data set of the same source.
Description: as §3
Series [26] is described as follows: in vitro. Conditions: mouse, liver microsomes, t (1 / 2).
Description: DNDI: half life in mouse liver microsomes at a concentration of 1uM
Series [27] is described as follows: DNDI: % of compound remaining in mouse S9 microsomes at a concentration of 1uM after 60 mins. In kind it is ADME, subcellular, Liver, S9 fraction.
Series [28] deals with Trypanosoma brucei. In words: DNDI: Mean survival time in days (MSD) of mice after intraperitoneal injection of Human African Trypanosomiasis (HAT), EATRO 110, in vivo at 50 mg/kg/day for 4 days. It is filed as functional, Mus musculus.
The test system of series [29] is Trypanosoma brucei. In words: DNDI: Mean survival time in days (MSD) of mice after intraperitoneal injection of Human African Trypanosomiasis (HAT), STIB 795, in vivo at 50 mg/kg/day for 4 days. In kind it is functional, Mus musculus.
Series [30] can be described thus: (§2) DNDI: Cytotoxicity against L929 mouse fibroblasts, 72 hour. It is filed as toxicity, cell-based. Conditions: mouse, L929 mouse fibroblasts.
The nature of series [31]: DNDI: % of compound remaining in rat S9 microsomes at a concentration of 1uM. It is filed as ADME, subcellular, Liver, S9 fraction.
Series [32] deals with T1, MDR1 (ABCB1). In words: DNDI: % of compound recovered from basolateral to apical permeability assay in MDCK cells transfected with human MDR1 after 60 mins at a concentration of 3uM. It is filed as ADME, cell-based, Canis lupus familiaris. Conditions: dog.
In series [33] the target is T2, ATP-dependent translocase ABCB1 (Homo sapiens, UniProt P08183). The description is as §1. In kind it is ADME, cell-based, Canis lupus familiaris. Conditions: dog, mdck.
Series [34] addresses T2, ATP-dependent translocase ABCB1. In words: DNDI: Apparent permeability from basolateral to apical side of the MDCK cell transfected with human MDR1after 60 mins at a concentration of 3uM. It is filed as ADME, cell-based, Canis lupus familiaris. The following applies: dog, 1 h.
For series [35] the target is unchanged. In words: DNDI: Apparent permeability from apical to basolateral side of the MDCK cell transfected with human MDR1after 60 mins at a concentration of 3uM. The following applies: dog, mdck, 1 h, 3 µM. It is filed as ADME, cell-based, Canis lupus familiaris.
The target of series [36] is T1, MDR1 (ABCB1). In words: DNDI: % of compound recovered from apical to basolateral permeability assay in MDCK cells transfected with human MDR1 after 60 mins at a concentration of 3uM. It is filed as ADME, cell-based, Canis lupus familiaris. Conditions: dog.
The subject of another series is L929. The series is described as §2. In kind it is toxicity, cell-based. The following applies: l929.
Where [37] appears, read: Trypanosoma brucei, SBRI 427, read-out: IC50.

T1 sequence (P08183 whole entry): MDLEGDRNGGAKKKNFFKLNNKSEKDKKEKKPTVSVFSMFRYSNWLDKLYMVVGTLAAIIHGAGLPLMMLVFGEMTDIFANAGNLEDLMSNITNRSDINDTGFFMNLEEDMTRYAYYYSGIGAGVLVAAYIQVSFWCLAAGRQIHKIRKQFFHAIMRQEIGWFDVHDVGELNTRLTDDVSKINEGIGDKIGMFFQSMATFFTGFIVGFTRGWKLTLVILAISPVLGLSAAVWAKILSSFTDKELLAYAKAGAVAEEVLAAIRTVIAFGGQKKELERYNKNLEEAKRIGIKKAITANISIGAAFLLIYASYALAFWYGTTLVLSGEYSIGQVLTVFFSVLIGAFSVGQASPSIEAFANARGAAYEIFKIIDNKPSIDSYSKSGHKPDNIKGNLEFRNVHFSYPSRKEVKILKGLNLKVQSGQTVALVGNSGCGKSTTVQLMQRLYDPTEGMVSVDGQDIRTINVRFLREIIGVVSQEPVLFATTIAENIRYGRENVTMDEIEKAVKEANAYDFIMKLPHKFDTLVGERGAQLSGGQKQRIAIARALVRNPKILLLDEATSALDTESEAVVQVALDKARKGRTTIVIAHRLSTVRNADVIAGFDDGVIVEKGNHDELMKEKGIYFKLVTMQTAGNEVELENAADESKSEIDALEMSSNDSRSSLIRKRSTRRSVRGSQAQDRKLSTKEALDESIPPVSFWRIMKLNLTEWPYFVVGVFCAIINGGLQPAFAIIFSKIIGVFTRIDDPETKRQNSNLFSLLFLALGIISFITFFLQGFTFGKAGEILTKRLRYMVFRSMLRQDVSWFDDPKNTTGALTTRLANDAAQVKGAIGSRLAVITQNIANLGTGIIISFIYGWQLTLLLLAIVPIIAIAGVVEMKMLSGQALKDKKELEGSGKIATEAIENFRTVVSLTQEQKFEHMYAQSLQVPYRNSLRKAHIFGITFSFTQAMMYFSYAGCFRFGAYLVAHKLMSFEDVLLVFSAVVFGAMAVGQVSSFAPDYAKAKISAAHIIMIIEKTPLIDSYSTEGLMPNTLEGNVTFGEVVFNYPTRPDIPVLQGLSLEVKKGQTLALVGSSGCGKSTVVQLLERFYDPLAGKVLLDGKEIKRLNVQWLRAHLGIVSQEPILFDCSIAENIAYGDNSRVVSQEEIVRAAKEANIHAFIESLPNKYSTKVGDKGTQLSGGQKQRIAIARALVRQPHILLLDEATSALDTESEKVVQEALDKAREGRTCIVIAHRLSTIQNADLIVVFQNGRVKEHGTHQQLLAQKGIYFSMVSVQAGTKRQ
T2 sequence (P08183 whole entry): as above

As for `O/N=C(/NC1CCCCC1)c1cccnc1Oc1ccccc1Cl`, the MSD with Trypanosoma brucei [1], with Trypanosoma brucei [2], in the series with Trypanosoma brucei [3], in the series on Trypanosoma brucei [4], with Trypanosoma brucei [9] and with Trypanosoma brucei [17] was 4 days throughout. The Papp B→A at 1 h, 3 µM at MDR1 (ABCB1) [5] turned out to be 34.8 ×10⁻⁶ cm/s. Besides, the solubility (kinetic) in series [6] came out at 4 µM (≈ 1.38 µg/mL). The efflux ratio at MDR1 (ABCB1) [7] came to 1.2. This molecule yielded a half-life at 10 µM in series [8] of 14 min. Moreover, the recovery was 58% on MDR1 (ABCB1) [10] and 67% on MDR1 (ABCB1) [16]. Besides, the IC50 with Trypanosoma brucei [11] (setting [37]) stood at 0.95 µg/mL (≈ 2.75 µM); in the series with Trypanosoma brucei [13], 1.41 µg/mL (≈ 4.08 µM). The microsomal CLint at 10 µM in series [12] is 211 µL/min/mg. In series [14], this molecule had a chromatographic logD of 4.52. Also, the concentration for half-maximal inhibition (IC50) at 24 h in series [15] was more than 50 µg/mL. Besides, on MDR1 (ABCB1) [18], the apparent permeability from apical to basolateral (Papp A→B) amounted to 30.2 ×10⁻⁶ cm/s.

In the case of `COc1ccc(/C(CNC2CCCCC2)=N/O)cc1`, the solubility (kinetic) in series [19] stood at 13 µM (≈ 3.41 µg/mL). Further, the microsomal CLint at 1 µM in the series “in vitro [20]” amounted to 66 µL/min/mg; in “in vitro [22]”, 235 µL/min/mg. In addition, the values for the half-life at 1 µM in “in vitro [21]” and in “in vitro [26]” were 13 min and 4 min, respectively. The “t (1 / 2)” value in series [23] came out at 11 min. The IC50 in the series with Trypanosoma brucei [11] (setting [37]) came out at 4.47 µg/mL (≈ 17 µM). Besides, the CLint in vitro in series [24] stood at 224 µL/min/mg; in series [25], 75 µL/min/mg. In addition, the chromatographic logD in [14] turned out to be 2.93. The 50% inhibitory concentration (IC50) at 24 h in series [15] is more than 50 µg/mL.

`CCCCc1ccc(-c2nc(CNCCC3CCCN3C)co2)cc1` (stereo not drawn) came in with a fraction remaining at 1 h, 1 µM in series [27] of 57.4%. The MSD with Trypanosoma brucei [28] stood at 10 days; with Trypanosoma brucei [29], 7 days. In series [19], this molecule came in with a solubility (kinetic) of 100 µM (≈ 34.1 µg/mL). Besides, in series [30], half-maximal inhibition (IC50 at 72 h) required 4.21 µg/mL (≈ 12.3 µM). The IC50 in the series with Trypanosoma brucei [11] came out at 0.21 µg/mL (≈ 0.615 µM); in the series on Trypanosoma brucei [11] (setting [37]) it was 0.19 µg/mL (≈ 0.556 µM). Also, the CLint in vitro in [24] came to 23 µL/min/mg. In series [14], this molecule displayed a chromatographic logD of 4.69. In series [31], the fraction remaining at 1 µM stood at 3.27%. The molecule further gave a half-life at 1 µM in “in vitro [26]” of 37 min.

Regarding `CN(C)CCNc1nc(Oc2cccc3ccccc23)c2sccc2n1`, the solubility (kinetic) in [19] is 100 µM (≈ 36.4 µg/mL). The figures for the recovery at 1 h, 3 µM at MDR1 (ABCB1) [32] and at MDR1 (ABCB1) [36] were 110% and 77.5%, respectively. The “Calculated Ratio” value in series [33] is recorded as 0.45. In addition, the Papp in series [34] was found to be 21.11 ×10⁻⁶ cm/s; in [35], 11.62 ×10⁻⁶ cm/s. In series [30], the midpoint of inhibition, the IC50 at 72 h, lay at 3.48 µg/mL (≈ 9.55 µM). The IC50 in the series with Trypanosoma brucei [11] (setting [37]) is 1.28 µg/mL (≈ 3.51 µM). In series [14], this molecule registered a chromatographic logD of 4.85.

In the series on Trypanosoma brucei [28], `CN1CCCC1CCNCc1coc(-c2ccc(OC3CCCC3)cc2)n1` (stereo not drawn) gave an MSD of less than 1 days. Also, in series [30], the 50% inhibitory concentration (IC50) at 72 h was 1.33 µg/mL (≈ 3.6 µM). The results for the IC50 in the series on L929 and with Trypanosoma brucei [11] (setting [37]) were 1.42 µg/mL (≈ 3.84 µM) and 0.22 µg/mL (≈ 0.595 µM), respectively.
